From PubChem BioAssay AID1053203 (The Scripps Research Institute Molecular Screening Center, 2014) come the findings set out here.

The structures appear in SMILES notation.

This assay is described as follows: growth inhibition of Trypanosoma brucei – absorbance, round 2, provider-run, counter-screen for T. brucei MetRS inhibitor project, late-stage follow-up (AID 1053203). Particulars: T. brucei Lister 427 bloodstream growth, AlamarBlue, 48 h. (The purpose of a counterscreen is to sort out artefacts and off-target activity.)

For the compound `CCN(CC)C(=O)C(=O)c1cn(CC(=O)Nc2cc(Oc3ccccc3)cc(C(F)(F)F)c2)c2ccccc12`, the half-inhibitory concentration (IC50) (run 1) was 1.15 µM and the concentration for half-maximal inhibition (IC50) (run 2) is 1.07 µM.

`CCN(CC)C(=O)C(=O)c1cn(CC(=O)Nc2cc(C(F)(F)F)cc(C(F)(F)F)c2)c2ccccc12` gave an IC50 (run 1) of 2.6 µM.

In the case of `CCN(CC)C(=O)C(=O)c1cn(CC(=O)Nc2cccc(C(F)(F)F)c2)c2cc(OC)ccc12`, the IC50 (run 1) was over 10 µM.

As for `CCN(CC)C(=O)C(=O)c1cn(CC(=O)Nc2cc(C)cc(C(F)(F)F)c2)c2ccccc12`, the half-maximal inhibitory concentration (IC50) turned out to be 1.72 µM (run 1) and 2.09 µM (run 2).

In the case of `CCN(CC)C(=O)C(=O)c1cn(CC(=O)Nc2cc(Br)cc(C(F)(F)F)c2)c2ccccc12`, the concentration for half-maximal inhibition (IC50) (run 1) stood at 3.36 µM.

Turning to `CCN(CC)C(=O)C(=O)c1cn(CC(=O)Nc2cc(Cl)cc(C(F)(F)F)c2)c2ccccc12`, the half-maximal inhibitory concentration (IC50) (run 1) amounted to 2.64 µM.

As a reminder, the IC50 is the concentration that inhibits the measured activity by half. A higher IC50 goes with a need for much substance.
